In US11987648B2, “Cyclohexapeptides as selective somatostatin SST5 receptor agonists” (Heptares Therapeutics Limited, priority 2018, dated 2024):
*1 amine or outer side, *2 acyl side, *3 side chain or, on linkers, in order; H or OH if unused. Where a SMILES comes first, the peptide text is derived from it. Side-chain parts run from the residue outwards. [ ]: non-standard residue; d: D form. The star is where a group is joined. Ala(piperidin-4-yl) = O=C([C@H](CC1CCN([*:3])CC1)N[*:1])[*:2]; X2 = O=C([C@@H]1C[C@@H](Oc2ccncc2)CN1[*:1])[*:2]; Ala(piperazin-1-yl) = N[C@@H](CN1CCNCC1)C(=O)O; Phe(4-Cl) = N[C@@H](Cc1ccc(Cl)cc1)C(=O)O; Morpholine(3S-CO) = O=C(O)[C@@H]1COCCN1; Ethylenediamine = C(CN[*:2])N[*:1]; d(hPhe) = N[C@H](CCc1ccccc1)C(=O)O; Hyp = O=C(O)[C@@H]1C[C@@H](O)CN1; hPhe = N[C@@H](CCc1ccccc1)C(=O)O; 3Pal = N[C@@H](Cc1cccnc1)C(=O)O; Cyclohexylmethyl = C1CCC(C*)CC1; Tic = O=C(O)[C@@H]1Cc2ccccc2CN1; Phg = N[C@H](C(=O)O)c1ccccc1; CO = O=C([*:1])[*:2]; Bn = c1ccc(C*)cc1

Key:
SST5 = SST5 (Homo sapiens, UniProt P35346); test: Hit Hunter cAMP XS+ assay, SST5 activation via Gi (reduction of forskolin-stimulated cAMP); format: cell-based; settings: for Emax: read-out: SST5 (EMax); for EC50: reduction of forskolin-stimulated cAMP, 4-parameter logistic fit, read-out: SST5 pEC50 (converted); for SST5/2 Selectivity: selectivity for SST5 over SST2
Chain of SST5 (P35346 whole entry): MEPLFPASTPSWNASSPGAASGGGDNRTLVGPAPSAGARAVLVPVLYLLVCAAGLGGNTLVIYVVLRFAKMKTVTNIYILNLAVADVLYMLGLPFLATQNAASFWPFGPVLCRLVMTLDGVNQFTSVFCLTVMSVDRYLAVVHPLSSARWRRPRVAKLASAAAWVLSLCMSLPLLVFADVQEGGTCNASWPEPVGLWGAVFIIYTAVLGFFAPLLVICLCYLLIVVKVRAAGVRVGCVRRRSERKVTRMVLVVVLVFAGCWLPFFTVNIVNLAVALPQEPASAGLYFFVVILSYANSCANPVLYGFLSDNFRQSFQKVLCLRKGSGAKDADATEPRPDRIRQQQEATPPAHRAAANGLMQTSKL
Protocol: (§1) A Hit Hunter® cAMP XS+ assay was used to monitor activation of the SST2 and SST5 via the Gi G protein. Cells were pre-stimulated with forskolin to elicit a cAMP response and the potency and efficacy of somatostatin agonists to reduce cAMP was measured. Briefly cells (10,000 cells/well) were incubated (37° C.; 30 min) with compound ([…]) in media (2:1 HBSS/11 mM Hepes: cAMP XS+Ab reagent) in the presence of EC80 forskolin ([…] and 15 μM SST5). Signal was detected through incubation with 20 μL cAMP XS+ED/CL lysis cocktail ([…]; RT) followed by incubation with […] cAMP XS+EA reagent (180 min; RT). Microplates were read with a PerkinElmer Envision™ instrument for chemiluminescent signal detection.

SST2 = SST2 (Homo sapiens, UniProt P30874); test: Hit Hunter cAMP XS+ assay, SST2 activation via Gi (reduction of forskolin-stimulated cAMP); format: cell-based; settings: for Emax: read-out: SST2 (EMax); for EC50: reduction of forskolin-stimulated cAMP, 4-parameter logistic fit, read-out: SST2 pEC50 (converted)
Chain of SST2 (P30874 whole entry): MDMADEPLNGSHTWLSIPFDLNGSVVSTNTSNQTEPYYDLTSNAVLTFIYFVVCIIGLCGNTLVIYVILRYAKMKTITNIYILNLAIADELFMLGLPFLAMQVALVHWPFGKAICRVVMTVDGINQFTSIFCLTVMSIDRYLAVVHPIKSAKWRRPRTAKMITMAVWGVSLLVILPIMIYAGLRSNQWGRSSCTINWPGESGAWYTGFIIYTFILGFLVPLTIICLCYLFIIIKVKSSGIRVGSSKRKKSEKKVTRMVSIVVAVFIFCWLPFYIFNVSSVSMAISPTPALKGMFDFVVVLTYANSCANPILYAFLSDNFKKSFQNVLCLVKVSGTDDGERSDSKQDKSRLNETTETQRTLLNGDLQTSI
Protocol: as §1

| Compound | Emax (SST5) [%] | EC50 (SST5) [nM] | SST5/2 Selectivity (SST5) | Emax (SST2) [%] | EC50 (SST2) [nM] |
| --- | --- | --- | --- | --- | --- |
| O=C1N[C@@H](Cc2ccc(OCc3ccccc3)cc2)C(=O)N[C@@H](Cc2cccnc2)C(=O)N2C[C@H](Oc3ccncc3)C[C@H]2C(=O)N[C@H](CCc2ccccc2)C(=O)N[C@@H](Cc2c[nH]c3ccccc23)C(=O)N[C@H]1CC1CCNCC1 [Example 24] (cyclo([3Pal][X2][d(hPhe)]W[Ala(piperidin-4-yl)]Y(Bn))) | 102 | 100 | 110.6 | 46.8 | > 10000 |
| NCCNC(=O)O[C@@H]1C[C@H]2C(=O)N[C@H](CCc3ccccc3)C(=O)N[C@H](Cc3c[nH]c4ccccc34)C(=O)N[C@@H](CN3CCNCC3)C(=O)N[C@@H](Cc3ccc(OCc4ccccc4)cc3)C(=O)N3Cc4ccccc4C[C@H]3C(=O)N2C1 [Example 25] (cyclo([Hyp]([CO-Ethylenediamine])[d(hPhe)][dW][Ala(piperazin-1-yl)]Y(Bn)[Tic])) | 102 | 0.126 | 1351.8 | 100 | 200 |
| NCCNC(=O)O[C@@H]1C[C@H]2C(=O)N[C@@H](CCc3ccccc3)C(=O)N[C@H](Cc3c[nH]c4ccccc34)C(=O)N[C@@H](CN3CCNCC3)C(=O)N[C@@H](Cc3ccc(OCc4ccccc4)cc3)C(=O)N3Cc4ccccc4C[C@H]3C(=O)N2C1 [Example 26] (cyclo([Hyp]([CO-Ethylenediamine])[hPhe][dW][Ala(piperazin-1-yl)]Y(Bn)[Tic])) | 99.1 | 0.126 | 4067.3 | 66.6 | 501 |
| NCCNC(=O)O[C@@H]1C[C@H]2C(=O)N[C@@H](c3ccccc3)C(=O)N[C@H](Cc3c[nH]c4ccccc34)C(=O)N[C@@H](CN3CCNCC3)C(=O)N[C@@H](Cc3ccc(OCC4CCCCC4)cc3)C(=O)N[C@@H](Cc3ccccc3)C(=O)N2C1 [Example 27] (cyclo(F[Hyp]([CO-Ethylenediamine])[Phg][dW][Ala(piperazin-1-yl)]Y(Cyclohexylmethyl))) | 99.4 | 2.51 | 159.6 | 90.7 | 398 |
| NCCNC(=O)O[C@@H]1C[C@H]2C(=O)N[C@@H](CCc3ccccc3)C(=O)N[C@H](Cc3c[nH]c4ccccc34)C(=O)N[C@@H](CC3CCNCC3)C(=O)N[C@@H](Cc3ccc(OCc4ccccc4)cc3)C(=O)N[C@@H](Cc3ccccc3)C(=O)N2C1 [Example 28] (cyclo(F[Hyp]([CO-Ethylenediamine])[hPhe][dW][Ala(piperidin-4-yl)]Y(Bn))) | 100 | 0.0794 | 101.0 | 99.6 | 7.94 |
| NCCNC(=O)O[C@@H]1C[C@H]2C(=O)N[C@@H](CCc3ccccc3)C(=O)N[C@@H](Cc3c[nH]c4ccccc34)C(=O)N[C@@H](CC3CCNCC3)C(=O)N[C@@H](Cc3ccc(OCc4ccccc4)cc3)C(=O)N[C@@H](Cc3ccccc3)C(=O)N2C1 [Example 29] (cyclo(F[Hyp]([CO-Ethylenediamine])[hPhe]W[Ala(piperidin-4-yl)]Y(Bn))) | 100 | 1 | 663.6 | 89.6 | 794 |
| NCCNC(=O)O[C@@H]1C[C@H]2C(=O)N[C@H](CCc3ccccc3)C(=O)N[C@H](Cc3c[nH]c4ccccc34)C(=O)N[C@@H](CN3CCNCC3)C(=O)N[C@@H](Cc3ccc(OCc4ccccc4)cc3)C(=O)N[C@@H](Cc3ccc(Cl)cc3)C(=O)N2C1 [Example 30] (cyclo([Hyp]([CO-Ethylenediamine])[d(hPhe)][dW][Ala(piperazin-1-yl)]Y(Bn)[Phe(4-Cl)])) | 101 | 1 | 214.2 | 100 | 251 |
| O=C1N[C@@H](Cc2ccc(OCc3ccccc3)cc2)C(=O)N2Cc3ccccc3C[C@H]2C(=O)N2CCOC[C@H]2C(=O)N[C@@H](CCc2ccccc2)C(=O)N[C@H](Cc2c[nH]c3ccccc23)C(=O)N[C@H]1CN1CCNCC1 [Example 31] (cyclo([Tic][Morpholine(3S-CO)][hPhe][dW][Ala(piperazin-1-yl)]Y(Bn))) | 88.7 | 0.0631 | 3441.5 | 99.7 | 200 |
